The subject of experiment [1] is Diet Induced Obese (DIO) C57BL/6 mice. Briefly: 10 day DIO mouse model, weight loss vs. vehicle. It is filed as in vivo. The settings on record: 240 h; for inhibition in vivo at 0.3 mg/kg: 0.3 mpk sc once a day for 10 days; for inhibition in vivo at 1 mg/kg: 1.0 mpk sc once a day for 10 days. An excerpt:
The objective of this study design was to investigate the efficacy of disclosed compounds in a 10 day DIO mouse model. Effects on body weight, food intake, hematology and blood chemistry were the primary readouts of this study design. Male, Diet Induced Obese (DIO) C57BL/6 mice, 19-21 weeks of age (13-15 weeks on high fat diet) were ordered from a certified vendor and upon receipt were housed on irradiated corncob bedding in micro-isolator cages on a 12-hour light-dark cycle (0700-1900) at 68-74° F. and 30-70% humidity. Mice were fed Research Diets D12492 (60% Kcal fat, 20% Kcal carbohydrate and 20% protein) and provided water ad libitum. DIO mice were received and housed in the facility for approximately two weeks prior to the start of test article administration. On Day −4 or −3, mice were randomized into study groups based on body weight and body weights were continued to be recorded daily for the duration of the study. Daily food intake was assessed starting on Study Day −2 by weighing of the food with hopper together to avoid loss of food in transfer.
Compounds were formulated into a 100% DMSO stock (at 9 mg/mL) prior to the start, and further diluted into the target working concentration using the vehicle of 10% DMSO in water. Prior to test article administration, starting on Day −3 a dosing acclimation occurred with all animals receiving a subcutaneous injection of vehicle (10% DMSO) only for 3 days. Starting on Day 1, test compounds or vehicle were administered based on individual body weight, subcutaneously, once a day for 10 days. All mice were sacrificed on Day 11, 24 hours following the final dosing on Day 10. After sacrifice, whole blood was collected and analyzed for hematology and blood chemistry parameters.
Compounds were tested for weight loss vs. vehicle at 0.3 and 1.0 mpk sc (mg per kg animal weight delivered subcutaneously), and the results are shown in Table 2 below.

The next experiment addresses T1, recombinant human MetAP2 (Homo sapiens, UniProt P50579).
T1 construct: Flag; made in house
Briefly: Recombinant human MetAP2 enzyme inhibition assay (MAS peptide / amino acid oxidase / Amplex Ultrared readout). It is filed as biochemical. The settings on record: Flag tagged human recombinant MetAP2, 25 minutes at 25° C. The protocol:
Compounds are tested for their capacity to inhibit recombinant human MetAP2 activity using the following assay.
Flag tagged Human recombinant MetAP2 expressed and isolated for use as the enzyme source. 10 mM stock solutions of compounds were prepared in 100% DMSO and further diluted in 100% DMSO required concentration to 1 mM stocks. The stock compound solutions and DMSO vehicle controls were diluted to target final compound concentrations using assay buffer to a final concentration of 50 mM HEPES containing 100 mM NaCl, pH adjusted to 7.5. The MAS peptide was formulated to a 7.5 mM stock in distilled water and prior to use further diluted 1:4. […] 40 μl of enzyme was mixed with 100 μl of MnCl2 then further diluted in assay buffer to a final concentration of 16 μg/ml. To test for compound effect on MetAP2 enzyme activity, 5 μl of test compound, 10 μl of MAS substrate/amino acid oxidase mixture, 10 μl of MetAP2 was added to test wells in a 384 well black plate with blank wells containing no enzyme, replaced with 10 μl of assay buffer. All compounds were tested in duplicate on two occasions on the same day.
The plate was sealed with a TopSeal A cover and mixed briefly on an orbital mixer at 900 rpm. The plate was incubated for a further 25 minutes at 25° C. A 5× stock of Amplex buffer was prepared (0.25 M sodium phosphate, pH 7.4) and stored at 4° C. […] Horse radish peroxidase was diluted in […] of Amplex buffer, 100 μl of this was combined with 50 μl of Amplex Ultrared in […] of 1× Amplex buffer to generate sufficient detection reagent for a 384 well plate. 25 μl detection reagent was added to each well of the test plate, which was re-sealed and mixed briefly on an orbital shaker. The plate was transferred to an Envision Multi-label reader and RFU measured corresponding to excitation 531 nm and emission 595 nm. At the end of the MetAP2 incubation 25 μl Amplex/HRP mixture per well was added and the plate read plate on a plate reader.

Where a name gives a salt, the structure may show the parent alone. A value given as a limit tells only on which side of the number the result lay.

T1 sequence (P50579 whole entry): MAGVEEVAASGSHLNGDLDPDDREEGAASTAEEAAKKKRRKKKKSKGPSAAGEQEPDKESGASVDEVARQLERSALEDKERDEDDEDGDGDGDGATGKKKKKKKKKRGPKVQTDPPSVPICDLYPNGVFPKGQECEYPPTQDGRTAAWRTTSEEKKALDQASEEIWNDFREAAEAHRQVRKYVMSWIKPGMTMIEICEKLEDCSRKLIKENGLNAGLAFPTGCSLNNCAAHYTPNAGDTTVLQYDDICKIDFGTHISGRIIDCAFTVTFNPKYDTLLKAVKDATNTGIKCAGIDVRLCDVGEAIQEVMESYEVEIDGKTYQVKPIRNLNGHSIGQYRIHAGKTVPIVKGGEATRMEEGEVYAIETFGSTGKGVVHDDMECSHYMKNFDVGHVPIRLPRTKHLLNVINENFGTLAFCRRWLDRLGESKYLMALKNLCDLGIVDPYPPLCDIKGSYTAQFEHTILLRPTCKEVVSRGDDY

In the case of `CO[C@@H]1[C@H](OC(=O)/C=C/c2ccc(OCCN(C)C)cc2)CC[C@]2(CO2)[C@H]1[C@@]1(C)O[C@@H]1CC=C(C)C` [A, [(3R,6R,7S,8S)-7-methoxy-8-[(2R,3R)-2-methyl-3-(3-methylbut-2-enyl)oxiran-2-yl]-2-oxaspiro[2.5]octan-6-yl] (E)-3-[4-[2-(dimethylamino)ethoxy]phenyl]prop-2-enoate, reference compound], in experiment [1], the inhibition in vivo at 0.3 mg/kg worked out at 20% and the inhibition in vivo at 1 mg/kg amounted to 18%.
For `CO[C@@H]1[C@H](OC(=O)N[C@H](c2nnc(N)o2)C(C)C)CC[C@]2(CO2)[C@H]1[C@@]1(C)O[C@@H]1CC=C(C)C` [Example 1, (3R,4S,5S,6R)-5-methoxy-4-((2R,3R)-2-methyl-3-(3-methylbut-2-enyl)oxiran-2-yl)-1-oxaspiro[2.5]octan-6-yl (S)-1-(5-amino-1,3,4-oxadiazol-2-yl)-2-methylpropylcarbamate], on recombinant human MetAP2, the IC50 was under 0.05 µM. In addition, in experiment [1], the inhibition in vivo at 0.3 mg/kg worked out at 2.6% and the inhibition in vivo at 1 mg/kg was found to be 2.1%.
Turning to `CNc1nnc([C@H](NC(=O)O[C@@H]2CC[C@]3(CO3)[C@@H]([C@@]3(C)O[C@@H]3CC=C(C)C)[C@@H]2OC)C(C)C)o1` [Example 3, (3R,5S,6R)-5-methoxy-4-((2R,3R)-2-methyl-3-(3-methylbut-2-enyl)oxiran-2-yl)-1-oxaspiro[2.5]octan-6-yl (R)-2-methyl-1-(5-(methylamino)-1,3,4-oxadiazol-2-yl)propylcarbamate], the IC50 at recombinant human MetAP2 lay within 0.05 to 0.5 µM. Further, the inhibition in vivo at 0.3 mg/kg in experiment [1] stood at 1.1%.
Consider `CO[C@@H]1[C@H](OC(=O)N[C@H](c2ncc[nH]2)C(C)C)CC[C@]2(CO2)[C@H]1[C@@]1(C)O[C@@H]1CC=C(C)C` [Example 4, (3R,4S,5S,6R)-5-methoxy-4-((2R,3R)-2-methyl-3-(3-methylbut-2-enyl)oxiran-2-yl)-1-oxaspiro[2.5]octan-6-yl (S)-1-(1H-imidazol-2-yl)-2-methylpropylcarbamate], for which, on recombinant human MetAP2, the IC50 is under 0.05 µM. In addition, in experiment [1], the inhibition in vivo at 0.3 mg/kg stood at 3.9% and the inhibition in vivo at 1 mg/kg was 0.7%.
For the compound `CO[C@@H]1[C@H](OC(=O)N[C@H](c2nccn2C[C@H]2CCCN2C)C(C)C)CC[C@]2(CO2)[C@H]1[C@@]1(C)O[C@@H]1CC=C(C)C` [Example 5, (3R,4S,5S,6R)-5-methoxy-4-((2R,3R)-2-methyl-3-(3-methylbut-2-enyl)oxiran-2-yl)-1-oxaspiro[2.5]octan-6-yl (S)-2-methyl-1-(1-(((R)-1-methylpyrrolidin-2-yl)methyl)-1H-imidazol-2-yl)propylcarbamate formate], the IC50 on recombinant human MetAP2 was 0.05 to 0.5 µM. Also, the inhibition in vivo at 0.3 mg/kg in experiment [1] was determined as 3.1%.
As to `CNc1nnc([C@H](NC(=O)O[C@@H]2CC[C@]3(CO3)[C@@H]([C@@]3(C)O[C@@H]3CC=C(C)C)[C@@H]2OC)C(C)C)s1` [Example 7, (3R,4S,5S,6R)-5-methoxy-4-((2R,3R)-2-methyl-3-(3-methylbut-2-enyl)oxiran-2-yl)-1-oxaspiro[2.5]octan-6-yl (R)-2-methyl-1-(5-(methylamino)-1,3,4-thiadiazol-2-yl)propylcarbamate], the half-inhibitory concentration (IC50) at recombinant human MetAP2 was under 0.05 µM. In experiment [1], the inhibition in vivo at 0.3 mg/kg is 1.8%.
On the same counts, the results for `CNc1nnc([C@@H](NC(=O)O[C@@H]2CC[C@]3(CO3)[C@@H]([C@@]3(C)O[C@@H]3CC=C(C)C)[C@@H]2OC)C(C)C)s1` [Example 8, (3R,4S,5S,6R)-5-methoxy-4-((2R,3R)-2-methyl-3-(3-methylbut-2-enyl)oxiran-2-yl)-1-oxaspiro[2.5]octan-6-yl (S)-2-methyl-1-(5-(methylamino)-1,3,4-thiadiazol-2-yl)propylcarbamate] are 0.05 to 0.5 µM and 2%.
Consider `CO[C@@H]1[C@H](OC(=O)N[C@H](c2nnc[nH]2)C(C)C)CC[C@]2(CO2)[C@H]1[C@@]1(C)O[C@@H]1CC=C(C)C` [Example 9, (3R,4S,5S,6R)-5-methoxy-4-((2R,3R)-2-methyl-3-(3-methylbut-2-enyl)oxiran-2-yl)-1-oxaspiro[2.5]octan-6-yl (S)-2-methyl-1-(4H-1,2,4-triazol-3-yl)propylcarbamate], for which the IC50 on recombinant human MetAP2 is under 0.05 µM. The inhibition in vivo at 0.3 mg/kg in experiment [1] was found to be 2.1%.
As to `CO[C@@H]1[C@H](OC(=O)N[C@H](c2noc(=O)[nH]2)C(C)C)CC[C@]2(CO2)[C@H]1[C@@]1(C)O[C@@H]1CC=C(C)C` [Example 10, (3R,4S,5S,6R)-5-methoxy-4-((2R,3R)-2-methyl-3-(3-methylbut-2-enyl)oxiran-2-yl)-1-oxaspiro[2.5]octan-6-yl (S)-2-methyl-1-(5-oxo-4,5-dihydro-1,2,4-oxadiazol-3-yl)propylcarbamate], the IC50 on recombinant human MetAP2 was 0.05 to 0.5 µM. Also, in experiment [1], the inhibition in vivo at 0.3 mg/kg is 4.1% and the inhibition in vivo at 1 mg/kg was determined as 2.9%.
On the same counts, the results for `CO[C@@H]1[C@H](OC(=O)N[C@@H](c2noc(=O)[nH]2)C(C)C)CC[C@]2(CO2)[C@H]1[C@@]1(C)O[C@@H]1CC=C(C)C` [Example 11, (3R,4S,5S,6R)-5-methoxy-4-((2R,3R)-2-methyl-3-(3-methylbut-2-enyl)oxiran-2-yl)-1-oxaspiro[2.5]octan-6-yl (R)-2-methyl-1-(5-oxo-4,5-dihydro-1,2,4-oxadiazol-3-yl)propylcarbamate] are 0.05 to 0.5 µM, -1.3% and 6.6%.
Regarding `CO[C@@H]1[C@H](OC(=O)N[C@H](c2cn(C[C@@H]3CCCN3C)cn2)C(C)C)CC[C@]2(CO2)[C@H]1[C@@]1(C)O[C@@H]1CC=C(C)C` [Example 14, (3R,4S,5S,6R)-5-methoxy-4-((2R,3R)-2-methyl-3-(3-methylbut-2-enyl)oxiran-2-yl)-1-oxaspiro[2.5]octan-6-yl (S)-2-methyl-1-(1-(((S)-1-methylpyrrolidin-2-yl)methyl)-1H-imidazol-4-yl)propylcarbamate formate], the IC50 at recombinant human MetAP2 is under 0.05 µM. Also, in experiment [1], the inhibition in vivo at 0.3 mg/kg came out at 5.8% and the inhibition in vivo at 1 mg/kg came out at 10.3%.
For `CO[C@@H]1[C@H](OC(=O)N[C@H](c2cn(CCN3CCOCC3)cn2)C(C)C)CC[C@]2(CO2)[C@H]1[C@@]1(C)O[C@@H]1CC=C(C)C` [Example 17, (3R,4S,5S,6R)-5-methoxy-4-((2R,3R)-2-methyl-3-(3-methylbut-2-enyl)oxiran-2-yl)-1-oxaspiro[2.5]octan-6-yl (S)-2-methyl-1-(1-(2-morpholinoethyl)-1H-imidazol-4-yl)propylcarbamate], the IC50 at recombinant human MetAP2 lay in the range of 0.05 to 0.5 µM. Also, the inhibition in vivo at 0.3 mg/kg in experiment [1] was found to be 3.2%.
On the same counts, the results for `CO[C@@H]1[C@H](OC(=O)N[C@H](c2cn(C[C@H]3CCN(CC(F)F)C3)cn2)C(C)C)CC[C@]2(CO2)[C@H]1[C@@]1(C)O[C@@H]1CC=C(C)C` [Example 18, (3R,4S,5S,6R)-5-methoxy-4-((2R,3R)-2-methyl-3-(3-methylbut-2-enyl)oxiran-2-yl)-1-oxaspiro[2.5]octan-6-yl (S)-1-(1-(((S)-1-(2,2-difluoroethyl)pyrrolidin-3-yl)methyl)-1H-imidazol-4-yl)-2-methylpropylcarbamate] are 0.05 to 0.5 µM and -0.4%.
With `CO[C@@H]1[C@H](OC(=O)N[C@H](c2c[nH]nn2)C(C)C)CC[C@]2(CO2)[C@H]1[C@@]1(C)O[C@@H]1CC=C(C)C` [Example 21, (3R,4S,5S,6R)-5-methoxy-4-((2R,3R)-2-methyl-3-(3-methylbut-2-enyl)oxiran-2-yl)-1-oxaspiro[2.5]octan-6-yl (S)-2-methyl-1-(1H-1,2,3-triazol-4-yl)propylcarbamate], the IC50 at recombinant human MetAP2 was under 0.05 µM.
